# Legend:
# Alexandergrass = experiment: Test D Alexandergrass; assay type: in vivo, Brachiaria plantaginea; conditions: Rate 64 g/ha, Postemergence; 0 to 100 scale, 0 no injury, 100 complete control
# bermuda-grass = experiment: Test D bermudagrass; assay type: in vivo, Cynodon dactylon; conditions: Rate 64 g/ha, Postemergence; 0 to 100 scale, 0 no injury, 100 complete control
# common pursiane = experiment: Test D common purslane; assay type: in vivo, Portulaca oleracea; conditions: Rate 64 g/ha, Postemergence; 0 to 100 scale, 0 no injury, 100 complete control
# itchgrass = experiment: Test D itchgrass; assay type: in vivo, Rottboellia exaltata; conditions: Rate 64 g/ha, Postemergence; 0 to 100 scale, 0 no injury, 100 complete control
# large crabgrass = experiment: Test D large crabgrass; assay type: in vivo, Digitaria sanguinalis; conditions: Rate 64 g/ha, Postemergence; 0 to 100 scale, 0 no injury, 100 complete control
# sandbur = experiment: Test D sandbur; assay type: in vivo, Cenchrus echinatus; conditions: Rate 64 g/ha, Postemergence; 0 to 100 scale, 0 no injury, 100 complete control
# surinam grass = experiment: Test D surinam grass; assay type: in vivo, Brachiaria decumbens; conditions: Rate 64 g/ha, Postemergence; 0 to 100 scale, 0 no injury, 100 complete control
# barnyardgrass = experiment: Test A barnyardgrass; assay type: in vivo, Echinochloa crus-galli; conditions: 0 to 10 scale where 0 is no effect and 10 is complete control
# In short: (§1)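 Injury scored visually after about eleven greenhouse days against untreated plants, 0 = no effect, 10 = complete control. Compounds, formulated in surfactant-containing non-phytotoxic solvent, were applied as preemergence soil drench to sandy loam plantings and as postemergence runoff spray at the 1–2 leaf stage.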
# morningglory = experiment: Test A morningglory; assay type: in vivo, Ipomoea spp.; conditions: 0 to 10 scale where 0 is no effect and 10 is complete control
# In short: as §1
# velvetleaf [1] = experiment: Test A velvetleaf; assay type: in vivo, Abutilon theophrasti; conditions: 0 to 10 scale where 0 is no effect and 10 is complete control
# Method: Seeds of barnyardgrass (Echinochloa crus-galli), crabgrass (Digitaria spp.), morningglory (Ipomoea spp.), and velvetleaf (Abutilon theophrasti) were planted into a sandy loam soil and treated preemergence by soil drench with test chemicals formulated in a non-phytotoxic solvent mixture which includes a surfactant At the same time, these crop and weed species were also treated postemergence sprayed to runoff, with test chemicals formulated in the same manner.
# Plants ranged in height from two to eighteen cm and were in the one to two leaf stage for the postemergence treatment. Treated plants and untreated controls were maintained in a greenhouse for approximately eleven days, after which all treated plants were compared to untreated controls and visually evaluated for injury. Plant response ratings, summarized in Table A, are based on a 0 to 10 scale where 0 is no effect and 10 is complete control.
# arrowleaf sida = experiment: Test C postemergence arrowleaf sida; assay type: in vivo, Sida rhombifolia; conditions: 0 to 100 scale, 0 no effect, 100 complete control
# In short: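 Compounds in a non-phytotoxic solvent with surfactant were sprayed postemergence on greenhouse-grown plants in 60:40 sandy loam/potting mix. After about 14 to 21 days, visual ratings against untreated controls on a 0 (no effect) to 100 (complete control) scale.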
# cocklebur = experiment: Test C postemergence cocklebur; assay type: in vivo, Xanthium strumarium; conditions: 0 to 100 scale, 0 no effect, 100 complete control
# Method: (§2) Compounds evaluated in this test were formulated in a non-phytotoxic solvent mixture which included a surfactant and applied to plants that were grown for various periods of time before treatment (postemergence application). A mixture of sandy loam soil and greenhouse potting mix in a 60:40 ratio was used for the postemergence test.
# (§3) Plantings of these crops and weed species were adjusted to produce plants of appropriate size for the postemergence test. All plant species were grown using normal greenhouse practices. Crop and weed species include arrowleaf sida (Sida rhombifolia), barnyardgrass (Echinochloa crus-galli), cocklebur (Xanthium strumarium), common ragweed (Ambrosia elatior), corn (Zea mays), cotton (Gossypium hirsutum), eastern black nightshade (Solanum ptycanthum), fall panicum (Panicum dichotomiflorum), field bindweed (Convolvulus arvensis), giant foxtail (Setaria faberii), hairy beggarticks (Bidens pilosa), ivyleaf morningglory (Ipomoea hederacea), johnsongrass (Sorghum halepense), ladysthumb smartweed (Polygonum persicaria), lambsquarters (Chenopodium album), large crabgrass (Digitaria sanguinalis), purple nutsedge (Cyperus rotundus), redroot pigweed (Amaranthus retroflexus), soybean (Glycine max), surinam grass (Brachiaria decumbens), velvetleaf (Abutilon theophrasti) and wild poinsettia (Euphorbia heterophylla).
# (§4) Treated plants and untreated controls were maintained in a greenhouse for approximately 14, to 21 days, after which all treated plants were compared to untreated controls and visually evaluated. Plant response ratings, summarized in Table C, were based upon a 0 to 100 scale where 0 was no effect and 100 was complete control. A dash response (−) means no test result.
# field bindweed = experiment: Test C postemergence field bindweed; assay type: in vivo, Convolvulus arvensis; conditions: 0 to 100 scale, 0 no effect, 100 complete control
# Method: as §2, §3, §4
# hairy beggarticks = experiment: Test C postemergence hairy beggarticks; assay type: in vivo, Bidens pilosa; conditions: 0 to 100 scale, 0 no effect, 100 complete control
# Method: as §2, §3, §4
# ivyleaf morningglory = experiment: Test C postemergence ivyleaf morningglory; assay type: in vivo, Ipomoea hederacea; conditions: 0 to 100 scale, 0 no effect, 100 complete control
# Method: as §2, §3, §4
# johnsongrass = experiment: Test C postemergence johnsongrass; assay type: in vivo, Sorghum halepense; conditions: 0 to 100 scale, 0 no effect, 100 complete control
# Method: as §2, §3, §4
# velvetleaf [2] = experiment: Test C postemergence velvetleaf; assay type: in vivo, Abutilon theophrasti; conditions: 0 to 100 scale, 0 no effect, 100 complete control
# Method: as §2, §3, §4
# wild poinsettia = experiment: Test C postemergence wild poinsettia; assay type: in vivo, Euphorbia heterophylla; conditions: 0 to 100 scale, 0 no effect, 100 complete control
# Method: as §2, §3, §4
SMILES,"Plant response rating, Barnyardgrass (barnyardgrass; Postemergence, Rate 1000 g/ha)","Plant response rating, Barnyardgrass (barnyardgrass; Pre-emergence, Rate 2000 g/ha)","Plant response rating, Morningglory (morningglory; Postemergence, Rate 1000 g/ha)","Plant response rating, Morningglory (morningglory; Pre-emergence, Rate 2000 g/ha)","Plant response rating, Velvetleaf (velvetleaf [1]; Postemergence, Rate 1000 g/ha)","Plant response rating, Velvetleaf (velvetleaf [1]; Pre-emergence, Rate 2000 g/ha)",Plant response rating Arrowleaf sida (arrowleaf sida; Rate 280 g/ha),"Plant response rating, Cocklebur (cocklebur; Rate 140 g/ha)","Plant response rating, Cocklebur (cocklebur; Rate 280 g/ha)","Plant response rating, Cocklebur (cocklebur; Rate 560 g/ha)",Plant response rating Field bindweed (field bindweed; Rate 140 g/ha),Plant response rating Field bindweed (field bindweed; Rate 280 g/ha),Plant response rating Field bindweed (field bindweed; Rate 560 g/ha),Plant response rating Field bindweed (field bindweed; Rate 1120 g/ha),Plant response rating H. beggarticks (hairy beggarticks; Rate 560 g/ha),Plant response rating H. beggarticks (hairy beggarticks; Rate 1120 g/ha),Plant response rating I. morningglory (ivyleaf morningglory; Rate 140 g/ha),Plant response rating I. morningglory (ivyleaf morningglory; Rate 280 g/ha),Plant response rating I. morningglory (ivyleaf morningglory; Rate 560 g/ha),Plant response rating I. morningglory (ivyleaf morningglory; Rate 1120 g/ha),further results
CC(C)Cn1c(=O)on(C(=O)N(c2ccc(F)cc2)C(C)C)c1=O [Compound 169],,,,,,,,,,,,,,,,,,,,,"Plant response rating, Alexandergrass (Alexandergrass): 65; Plant response rating, Bermudagrass (bermuda-grass): 100; Plant response rating, C. purslane (common pursiane): 0; Plant response rating, Itchgrass (itchgrass): 0; Plant response rating, Large crabgrass (large crabgrass): 100; Sandbur plant response rating (sandbur): 40; Surinam grass plant response rating (surinam grass): 65"
CC(C)Oc1cc(-n2c(=O)on(C(=O)N(c3ccc(F)cc3)C(C)C)c2=O)c(Cl)cc1Cl [Compound 43],0,0,0,0,0,0,,,,,,,,,,,,,,,
CC(C)N(C(=O)n1oc(=O)n(Cc2cccs2)c1=O)c1ccc(F)cc1 [Compound 80],,,,,,,5,5,10,50,0,0,0,0,10,10,0,10,30,50,"Plant response rating Arrowleaf sida (arrowleaf sida; Rate 140 g/ha): 0; Plant response rating Arrowleaf sida (arrowleaf sida; Rate 1120 g/ha): 30; Plant response rating, Cocklebur (cocklebur; Rate 1120 g/ha): 50; Plant response rating H. beggarticks (hairy beggarticks; Rate 140 g/ha): 0; Plant response rating, Johnsongrass (johnsongrass; Rate 140 g/ha): 0; Plant response rating, Johnsongrass (johnsongrass; Rate 280 g/ha): 0; Plant response rating, Johnsongrass (johnsongrass; Rate 560 g/ha): 0; Plant response rating, Johnsongrass (johnsongrass; Rate 1120 g/ha): 0; Plant response rating, Velvetleaf (velvetleaf [2]; Rate 140 g/ha): 5; Plant response rating, Velvetleaf (velvetleaf [2]; Rate 280 g/ha): 5; Plant response rating, Velvetleaf (velvetleaf [2]; Rate 560 g/ha): 20; Plant response rating, Velvetleaf (velvetleaf [2]; Rate 1120 g/ha): 20; Plant response rating Wild poinsettia (wild poinsettia; Rate 140 g/ha): 0; Plant response rating Wild poinsettia (wild poinsettia; Rate 280 g/ha): 0; Plant response rating Wild poinsettia (wild poinsettia; Rate 560 g/ha): 5; Plant response rating Wild poinsettia (wild poinsettia; Rate 1120 g/ha): 5"
CCN(CC)C(=O)n1oc(=O)n(-c2ccc(OC)cc2)c1=O [Compound 1],8,9,0,0,0,0,,,,,,,,,,,,,,,
Cc1ccccc1-n1c(=O)on(C(=O)N(C2=CCOCC2)C(C)C)c1=O [Compound 10],9,10,0,1,4,2,,,,,,,,,,,,,,,
CC(C)N(C(=O)n1oc(=O)n(Cc2cccs2)c1=O)c1ccccc1 [Compound 103],,,,,,,0,0,0,0,0,0,0,0,0,5,0,0,0,10,"Plant response rating Arrowleaf sida (arrowleaf sida; Rate 140 g/ha): 0; Plant response rating Arrowleaf sida (arrowleaf sida; Rate 560 g/ha): 0; Plant response rating, Cocklebur (cocklebur; Rate 1120 g/ha): 0; Plant response rating H. beggarticks (hairy beggarticks; Rate 140 g/ha): 0; Plant response rating H. beggarticks (hairy beggarticks; Rate 280 g/ha): 0; Plant response rating, Johnsongrass (johnsongrass; Rate 140 g/ha): 0; Plant response rating, Johnsongrass (johnsongrass; Rate 280 g/ha): 0; Plant response rating, Johnsongrass (johnsongrass; Rate 560 g/ha): 0; Plant response rating, Johnsongrass (johnsongrass; Rate 1120 g/ha): 0; Plant response rating, Velvetleaf (velvetleaf [2]; Rate 140 g/ha): 0; Plant response rating, Velvetleaf (velvetleaf [2]; Rate 280 g/ha): 5; Plant response rating, Velvetleaf (velvetleaf [2]; Rate 560 g/ha): 10; Plant response rating, Velvetleaf (velvetleaf [2]; Rate 1120 g/ha): 45; Plant response rating Wild poinsettia (wild poinsettia; Rate 140 g/ha): 0; Plant response rating Wild poinsettia (wild poinsettia; Rate 280 g/ha): 0; Plant response rating Wild poinsettia (wild poinsettia; Rate 560 g/ha): 10; Plant response rating Wild poinsettia (wild poinsettia; Rate 1120 g/ha): 60"
CC(C)N(C(=O)n1oc(=O)n(C2CCCCC2C(F)(F)F)c1=O)c1ccc(F)cc1 (stereo not shown) [Compound 99],7,9,2,2,2,3,,,,,,,,,,,,,,,
C=CCn1c(=O)on(C(=O)N(c2ccccc2)C(C)C)c1=O [Compound 93],,,,,,,10,0,35,40,0,0,0,50,5,70,5,10,10,70,"Plant response rating Arrowleaf sida (arrowleaf sida; Rate 560 g/ha): 60; Plant response rating Arrowleaf sida (arrowleaf sida; Rate 1120 g/ha): 60; Plant response rating H. beggarticks (hairy beggarticks; Rate 280 g/ha): 0; Plant response rating, Johnsongrass (johnsongrass; Rate 140 g/ha): 0; Plant response rating, Johnsongrass (johnsongrass; Rate 280 g/ha): 5; Plant response rating, Johnsongrass (johnsongrass; Rate 560 g/ha): 85; Plant response rating, Johnsongrass (johnsongrass; Rate 1120 g/ha): 90; Plant response rating, Velvetleaf (velvetleaf [2]; Rate 140 g/ha): 0; Plant response rating, Velvetleaf (velvetleaf [2]; Rate 280 g/ha): 5; Plant response rating, Velvetleaf (velvetleaf [2]; Rate 560 g/ha): 40; Plant response rating, Velvetleaf (velvetleaf [2]; Rate 1120 g/ha): 70; Plant response rating Wild poinsettia (wild poinsettia; Rate 140 g/ha): 0; Plant response rating Wild poinsettia (wild poinsettia; Rate 280 g/ha): 0; Plant response rating Wild poinsettia (wild poinsettia; Rate 560 g/ha): 30; Plant response rating Wild poinsettia (wild poinsettia; Rate 1120 g/ha): 70"
